30 compounds from patent US10933063B2 (priority 2017, dated 2021) can be followed below.

pIC50: −log10 of the molar value.

BTK, sequence (Q06187 whole entry, looked up, species assumed): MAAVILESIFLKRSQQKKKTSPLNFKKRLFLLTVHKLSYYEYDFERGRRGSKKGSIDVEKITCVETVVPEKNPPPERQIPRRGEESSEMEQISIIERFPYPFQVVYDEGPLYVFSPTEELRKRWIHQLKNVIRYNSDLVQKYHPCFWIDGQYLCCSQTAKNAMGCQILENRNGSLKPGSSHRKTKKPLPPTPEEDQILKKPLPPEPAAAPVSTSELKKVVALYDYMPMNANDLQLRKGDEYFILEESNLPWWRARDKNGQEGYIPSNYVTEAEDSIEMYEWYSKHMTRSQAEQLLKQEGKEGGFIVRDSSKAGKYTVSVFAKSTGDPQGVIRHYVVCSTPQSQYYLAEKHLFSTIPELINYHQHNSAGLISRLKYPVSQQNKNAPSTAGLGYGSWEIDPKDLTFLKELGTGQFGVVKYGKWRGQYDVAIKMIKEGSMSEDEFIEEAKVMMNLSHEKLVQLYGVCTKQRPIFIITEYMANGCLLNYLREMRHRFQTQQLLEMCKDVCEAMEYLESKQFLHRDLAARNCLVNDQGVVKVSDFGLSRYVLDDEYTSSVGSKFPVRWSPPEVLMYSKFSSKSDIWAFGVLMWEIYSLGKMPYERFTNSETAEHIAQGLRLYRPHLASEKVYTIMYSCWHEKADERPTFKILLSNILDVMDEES

This experiment concerns the target BTK (Homo sapiens (Human), UniProt Q06187). To be noted: read-out: BTK Inhibition.
Protocol: Btk kinase activity was determined using a homogenous time resolved fluorescence (HTRF) methodology. Measurements were performed in a reaction volume of 15 μL using 384-well assay plates. Kinase enzyme, inhibitor, ATP and 1 μM peptide substrate were incubated in a reaction buffer compose of Hepes50 mM (pH7.0), NaN3 0.02%, BSA 0.01%, Orthocanadate 0.1 mM. […] For each compound, enzyme activity as measured at various concentrations of compound, Negative control reactions were performed in the absence of inhibitor in two replicates and eight no enzyme controls were used to determine baseline fluorescence levels.
For the compound `COc1cccc(Oc2ccc(-c3nc([C@@H]4CCN(C(=O)/C=C/CN(C)C5CC5)C4)n4ccnc(C)c34)cc2)c1F` [Example 105, (R,E)-4-(cyclopropyl(methyl)amino)-1-(3-(1-(4-(2-fluoro-3-methoxyphenoxy)phenyl)-8-methylimidazo[1,5-a]pyrazin-3-yl)pyrrolidin-1-yl)but-2-en-1-one], the pIC50 is over 8.00.
Then `C=CC(=O)N1CC[C@@H](c2nc(-c3ccc(Oc4cccc(OC)c4F)cc3)c3cncc(OCCN(C)C)n23)C1` [Example 89, (R)-1-(3-(5-(2-(dimethylamino)ethoxy)-1-(4-(2-fluoro-3-methoxyphenoxy)phenyl)imidazo[1,5-a]pyrazin-3-yl)pyrrolidin-1-yl)prop-2-en-1-one], with over 8.00.
On to `C=CC(=O)N1CC[C@@H](c2nc(-c3ccc(Oc4cccc(OC)c4F)cc3)c3cncc(OC4CCC4)n23)C1` [Example 100, (R)-1-(3-(5-cyclobutoxy-1-(4-(2-fluoro-3-methoxyphenoxy)phenyl)imidazo[1,5-a]pyrazin-3-yl)pyrrolidin-1-yl)prop-2-en-1-one], for which the pIC50 was over 8.00.
Then `CC#CC(=O)N1CC[C@@H](c2nc(-c3ccc(Oc4cccc(OC)c4F)cc3)c3c(C(N)=O)nccn23)C1` [Example 108, (R)-3-(1-(but-2-ynoyl)pyrrolidin-3-yl)-1-(4-(2-fluoro-3-methoxyphenoxy)phenyl)imidazo[1,5-a]pyrazine-8-carboxamide], with under 5.00; and `C=CC(=O)N1CCC[C@H]1c1nc(-c2ccc(Oc3cccc(OC)c3F)cc2)c2c(C)nccn12` [Example 61, (S)-1-(2-(1-(4-(2-fluoro-3-methoxyphenoxy)phenyl)-8-methylimidazo[1,5-a]pyrazin-3-yl)pyrrolidin-1-yl)prop-2-en-1-one], with over 8.00; and `CC#CC(=O)N1CCCC[C@H]1c1nc(-c2ccc(C(=O)Nc3cc(C(F)(F)F)ccn3)cc2)c2c(C(F)(F)F)nccn12` [Example 202, (S)-4-(3-(1-(but-2-ynoyl)piperidin-2-yl)-8-(trifluoromethyl)imidazo [1,5-a]pyrazin-1-yl)-N-(4-(trifluoromethyl)pyridin-2-yl)benzamide], with under 5.00.
Then `C=CC(=O)N1CCCC[C@H]1c1nc(-c2ccc(C(=O)Nc3ccccn3)cc2)c2c(C3CC3)nccn12` [Example 191, (S)-4-(3-(1-acryloylpiperidin-2-yl)-8-cyclopropylimidazo [1,5-a]pyrazin-1-yl)-N-(pyridin-2-yl)benzamide], with under 5.00; and `C=CC(=O)N1CC[C@@H](c2nc(-c3ccc(Oc4cccc(OC)c4F)cc3)c3c(C)ncc(C)n23)C1` [Example 74, (R)-1-(3-(1-(4-(2-fluoro-3-methoxyphenoxy)phenyl)-5,8-dimethylimidazo[1,5-a]pyrazin-3-yl)pyrrolidin-1-yl)prop-2-en-1-one], with over 8.00; and `C=CC(=O)N1CC[C@@H](c2nc(-c3ccc(Oc4cccc(OC)c4F)cc3)c3cncc(OC4CCOC4)n23)C1` (stereo partly drawn) [Example 98, 1-((3R)-3-(1-(4-(2-fluoro-3-methoxyphenoxy)phenyl)-5-((tetrahydrofuran-3-yl)oxy)imidazo[1,5-a]pyrazin-3-yl)pyrrolidin-1-yl)prop-2-en-1-one], with over 8.00.
As for `C=CC(=O)N1CCC[C@H]1c1nc(-c2ccc(Oc3cccc(OC)c3F)cc2)c2cncc(OC)n12` [Example 82, (S)-1-(2-(1-(4-(2-fluoro-3-methoxyphenoxy)phenyl)-5-methoxyimidazo[1,5-a]pyrazin-3-yl)pyrrolidin-1-yl)prop-2-en-1-one], the figure is over 8.00; as for `C=CC(=O)N1CCC[C@H]1c1nc(-c2ccc(Oc3cccc(OC)c3F)cc2)c2cncc(C)n12` [Example 62, (S)-1-(2-(1-(4-(2-fluoro-3-methoxyphenoxy)phenyl)-5-methylimidazo[1,5-a]pyrazin-3-yl)pyrrolidin-1-yl)prop-2-en-1-one], over 8.00.
For `CC#CC(=O)N1CC[C@@H](c2nc(-c3ccc(Oc4cccc(OC)c4F)cc3)c3cncc(OC)n23)C1` [Example 86, (R)-1-(3-(1-(4-(2-fluoro-3-methoxyphenoxy)phenyl)-5-methoxyimidazo[1,5-a]pyrazin-3-yl)pyrrolidin-1-yl)but-2-yn-1-one], the pIC50 is over 8.00.
For `C=CC(=O)N1CCC[C@H]1c1nc(-c2ccc(Oc3cccc(OC)c3C)cc2)c2cnccn12` [Example 29, (S)-1-(2-(1-(4-(3-methoxy-2-methylphenoxy)phenyl)imidazo[1,5-a]pyrazin-3-yl)pyrrolidin-1-yl)prop-2-en-1-one], the pIC50 was over 8.00.
Then `C=CC(=O)N1CC[C@@H](c2nc(-c3ccc(C(=O)Nc4ccccn4)cc3)c3c(C)ncc(OCC)n23)C1` [Example 206, (R)-4-(3-(1-acryloylpyrrolidin-3-yl)-5-ethoxy-8-methylimidazo[1,5-a]pyrazin-1-yl)-N-(pyridin-2-yl)benzamide], with over 8.00.
Consider `CC#CC(=O)N1CC[C@@H](c2nc(-c3ccc(Oc4cccc(OC)c4F)cc3)c3cncc(OCCCC)n23)C1` [Example 97, (R)-1-(3-(5-butoxy-1-(4-(2-fluoro-3-methoxyphenoxy)phenyl)imidazo[1,5-a]pyrazin-3-yl)pyrrolidin-1-yl)but-2-yn-1-one], for which the pIC50 was over 8.00.
As for `CC#CC(=O)N1CC[C@@H](c2nc(-c3ccc(Oc4cccc(OC)c4F)cc3)c3c(OC)nccn23)C1` [Example 116, (R)-1-(3-(1-(4-(2-fluoro-3-methoxyphenoxy)phenyl)-8-methoxyimidazo[1,5-a]pyrazin-3-yl)pyrrolidin-1-yl)but-2-yn-1-one], the figure is under 5.00.
Then `C=CC(=O)N1CC[C@@H](c2nc(-c3ccc(Oc4cccc(OC)c4F)cc3)c3cncc(OC)n23)C1` [Example 85, (R)-1-(3-(1-(4-(2-fluoro-3-methoxyphenoxy)phenyl)-5-methoxyimidazo[1,5-a]pyrazin-3-yl)pyrrolidin-1-yl)prop-2-en-1-one], with over 8.00; and `C=CC(=O)N1CCC[C@H]1c1nc(-c2ccc(C(=O)Nc3ccccn3)cc2)c2c(C3CC3)nccn12` [Example 190, (S)-4-(3-(1-acryloylpyrrolidin-2-yl)-8-cyclopropylimidazo [1,5-a]pyrazin-l-yl)-N-(pyridin-2-yl)benzamide], with under 5.00; and `C=CC(=O)N1CC[C@@H](c2nc(-c3ccc(Oc4cccc(OC)c4F)cc3)c3cncc(OCC)n23)C1` [Example 94, (R)-1-(3-(5-ethoxy-1-(4-(2-fluoro-3-methoxyphenoxy)phenyl)imidazo[1,5-a]pyrazin-3-yl)pyrrolidin-1-yl)prop-2-en-1-one], with over 8.00.
Then `C=CC(=O)N1CCC[C@H]1c1nc(-c2ccc(C(=O)Nc3ccccn3)cc2)c2c(C)ncc(C)n12` [Example 174, (S)-4-(3-(1-acryloylpyrrolidin-2-yl)-5,8-dimethylimidazo [1,5-a]pyrazin-1-yl)-N-(pyridin-2-yl)benzamide], with over 8.00; and `C=CC(=O)N1CC[C@@H](c2nc(-c3ccc(Oc4cccc(OC)c4F)cc3)c3cnccn23)C1` [Example 68, (R)-1-(3-(1-(4-(2-fluoro-3-methoxyphenoxy)phenyl)imidazo[1,5-a]pyrazin-3-yl)pyrrolidin-1-yl)prop-2-en-1-one], with over 8.00.
Take `C=CC(=O)N1CCCC[C@H]1c1nc(-c2ccc(C(=O)Nc3ccccn3)cc2)c2c(C(F)(F)F)nccn12` [Example 199, (S)-4-(3-(1-acryloylpiperidin-2-yl)-8-(trifluoromethyl)imidazo[1,5-a]pyrazin-1-yl)-N-(pyridin-2-yl)benzamide]: the pIC50 is under 5.00.
As for `C=CC(=O)N1CCC[C@@H](c2nc(-c3ccc(C(=O)Nc4ccccn4)cc3)c3c(C)ncc(C)n23)C1` [Example 184, (R)-4-(3-(1-acryloylpiperidin-3-yl)-5,8-dimethylimidazo [1,5-a]pyrazin-1-yl)-N-(pyridin-2-yl)benzamide], the figure is over 8.00; as for `C=CC(=O)N1CC[C@@H](c2nc(-c3ccc(Oc4cccc(OC)c4F)cc3)c3c(CC)nccn23)C1` [Example 106, (R)-1-(3-(8-ethyl-1-(4-(2-fluoro-3-methoxyphenoxy)phenyl)imidazo[1,5-a]pyrazin-3-yl)pyrrolidin-1-yl)prop-2-en-1-one], over 8.00; as for `CC#CC(=O)N1CCCC[C@H]1c1nc(-c2ccc(C(=O)Nc3ccccn3)cc2)c2c(C3CC3)nccn12` [Example 192, (S)-4-(3-(1-(but-2-ynoyl)piperidin-2-yl)-8-cyclopropylimidazo[1,5-a]pyrazin-1-yl)-N-(pyridin-2-yl)benzamide], under 5.00.
As for `CN(C)C(=O)N1CCCC[C@H]1c1nc(-c2ccc(C(=O)Nc3cc(C(F)(F)F)ccn3)cc2)c2c(C(F)(F)F)nccn12` [Example 216, (S)-N,N-dimethyl-2-(8-(trifluoromethyl)-1-(4-((4-(trifluoromethyl)pyridin-2-yl)carbamoyl)phenyl)imidazo[1,5-a]pyrazin-3-yl)piperidine-1-carboxamide], the figure is under 5.00; as for `CC#CC(=O)N1CCCC[C@H]1c1nc(-c2ccc(Oc3cccc(OC)c3F)cc2)c2c(C(F)(F)F)nccn12` [Example 122, (S)-1-(2-(1-(4-(2-fluoro-3-methoxyphenoxy)phenyl)-8-(trifluoromethyl)imidazo[1,5-a]pyrazin-3-yl)piperidin-1-yl)but-2-yn-1-one], under 5.00; as for `C=CC(=O)N1CCCC[C@H]1c1nc(-c2ccc(Oc3cccc(F)c3)cc2)c2c(C)nccn12` [Example 55, (S)-1-(2-(1-(4-(3-fluorophenoxy)phenyl)-8-methylimidazo[1,5-a]pyrazin-3-yl)piperidin-1-yl)prop-2-en-1-one], over 8.00.
On to `C=CC(=O)N1CCC[C@H]1c1nc(-c2ccc(Oc3cccc(OC)c3F)cc2)c2c(C)ncc(C)n12` [Example 64, (S)-1-(2-(1-(4-(2-fluoro-3-methoxyphenoxy)phenyl)-5,8-dimethylimidazo[1,5-a]pyrazin-3-yl)pyrrolidin-1-yl)prop-2-en-1-one], for which the pIC50 is over 8.00.
As for `CC#CC(=O)N1CC[C@@H](c2nc(-c3ccc(Oc4cccc(OC)c4F)cc3)c3cncc(OCCC)n23)C1` [Example 96, (R)-1-(3-(1-(4-(2-fluoro-3-methoxyphenoxy)phenyl)-5-propoxyimidazo[1,5-a]pyrazin-3-yl)pyrrolidin-1-yl)but-2-yn-1-one], the figure is over 8.00.
